Read-outs that look alike come from different tables or passages of the source. Where only a bound is given, the exact number is not on record here.

The target of experiment [1] is T1, human BRD4 bromodomain II (Homo sapiens, UniProt O60885).
T1 construct: human BRD4 bromodomain II [based on Genbank NM_058243, residues 349-460]; host or cells: E. coli
In words: Bromodomain binding assay (AlphaScreen), BRD4 BDII. The essentials:
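Inhibition of acetyl-H4 peptide binding to human BRD4 bromodomains is measured by bead-based proximity (AlphaScreen) in pH 7.5 HEPES buffer containing 0.05% CHAPS and 0.1% BSA. Ten compound concentrations in 3-fold steps give competitive binding IC50s.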
(In general: Bead proximity is the source of the signal in Alpha formats.)

Experiment [2] concerns human SKM-1 acute myeloid leukemia cells. Description: SKM-1 antiproliferation cell-based assay (ATPlite). The note with it: Homo sapiens. The essentials:
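Log-phase cells in RPMI 1640/15% FBS were seeded at 34722 cells/mL and exposed for 4 days to nine-concentration DMSO serial dilutions in triplicate. Viability was read as ATP luminescence (ATPlite 1step), and IC50 values came from variable-slope non-linear regression.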
(In ATP-based viability assays light output follows the ATP content of the culture.)

Where [3] appears, read: AlphaScreen assay, Table C2, read-out: BRD4 BDII IC50.
Where [4] appears, read: SKM-1, 96 h, SKM-1 antiproliferation assay, 4 days, Table C2.
The mark [5] stands for this setting: BRD4 BDII AlphaScreen assay, read-out: BRD4 BD2 IC50.
Setting [6] is: SKM-1, SKM-1 antiproliferation assay.

Consider `CC(=O)Nc1ccc(-c2cccc(-c3cc(OC4CC4)nc(N4CCNCC4)c3)c2O)cc1F` [Example 351, N-(3′-(2-cyclopropoxy-6-(piperazin-l-yl)pyridin-4-yl)-3-fluoro-2′-hydroxy-[1,1′-biphenyl]-4-yl)acetamide], for which the IC50 (as a rule, the midpoint of a concentration-inhibition curve) in experiment [1] (setting [3]) was 10 to 100 nM. The concentration for 50% growth inhibition (GI50) (commonly the concentration at which growth is held to half of that of the control) in experiment [2] (setting [4]) fell in the range of 300 to 3000 nM.
For `CC(=O)N1CCN(c2ccc(-c3cc(F)cc(-c4ccnc(N5CCNCC5)c4)c3O)cc2Cl)C1=O` [Example 381, 1-acetyl-3-(3-chloro-5′-fluoro-2′-hydroxy-3′-(2-(piperazin-1-yl)pyridin-4-yl)-[1,1′-biphenyl]-4-yl)imidazolidin-2-one], in experiment [1] (setting [3]), the IC50 was above 100 nM. Moreover, the GI50 in experiment [2] (setting [4]) was in the range of 300 to 3000 nM.
As to `Cn1ccn(-c2ccc(-c3cc(F)cc(-c4ccnc(N5CCNc6ccccc65)c4)c3O)cc2Cl)c1=O` [Example 532, 1-(3-chloro-3′-(2-(3,4-dihydroquinoxalin-1(2H)-yl)pyridin-4-yl)-5′-fluoro-2′-hydroxy-[1,1′-biphenyl]-4-yl)-3-methyl-1H-imidazol-2(3H)-one], the IC50 in experiment [1] (setting [3]) was above 100 nM. In experiment [2] (setting [4]), this molecule registered a GI50 of at least 3000 nM.
In the case of `Cn1ccn(-c2ccc(-c3cc(F)cc(-c4ccnc(N5CCC(C)(O)CC5)c4)c3O)cc2Cl)c1=O` [Example 762, 1-(3-chloro-5′-fluoro-2′-hydroxy-3′-(2-(4-hydroxy-4-methylpiperidin-1-yl)pyridin-4-yl)-[1,1′-biphenyl]-4-yl)-3-methyl-1,3-dihydro-2H-imidazol-2-one], the IC50 in experiment [1] (setting [3]) was in the range of 1 to 10 nM. In experiment [2] (setting [4]), this molecule showed a GI50 of 30 to 300 nM.
On to `CN1CCN(c2ccc(-c3cccc(-c4ccc(CO)c(N5CCNCC5)c4)c3O)cc2Cl)C1=O` [Example 317, 1-(3-chloro-2′-hydroxy-4″-(hydroxymethyl)-3″-(piperazin-1-yl)-[1,1′:3′,1″-terphenyl]-4-yl)-3-methylimidazolidin-2-one], for which the IC50 in experiment [1] (setting [3]) was 1 to 10 nM. The GI50 in experiment [2] (setting [4]) fell in the range of 30 to 300 nM.
For the molecule `CN1CCN(c2c(Cl)cc(-c3cc(F)cc(-c4ccnc(N5CCNCC5)c4)c3O)cc2Cl)C1=O` [Example 404, 1-(3,5-dichloro-5′-fluoro-2′-hydroxy-3′-(2-(piperazin-1-yl)pyridin-4-yl)-[1,1′-biphenyl]-4-yl)-3-methylimidazolidin-2-one], the 50% inhibitory concentration (IC50) in experiment [1] (setting [3]) was above 100 nM. The same molecule came in with a GI50 in experiment [2] (setting [4]) of 300 to 3000 nM.
For `Cc1cc(-c2ccc(-n3ccn(C)c3=O)c(Cl)c2)c(O)c(-c2cc(N3CCNCC3)c3nn[nH]c3c2)c1` [Example 565], the half-maximal inhibitory concentration (IC50) in experiment [1] (setting [3]) fell in the range of 0.01 to 1 nM. Besides, in experiment [2] (setting [4]), the GI50 was in the range of 0.3 to 30 nM.
`Cc1cc(-c2ccnc(N3CC[C@H](N)C3)c2)c(O)c(-c2ccc(-n3ccn(C)c3=O)c(Cl)c2)c1` [Example 498, (S)-1-(3′-(2-(3-aminopyrrolidin-1-yl)pyridin-4-yl)-3-chloro-2′-hydroxy-5′-methyl-[1,1′-biphenyl]-4-yl)-3-methyl-1H-imidazol-2(3H)-one]: the IC50 in experiment [1] (setting [3]) was 0.01 to 1 nM. In experiment [2] (setting [4]), this molecule yielded a GI50 of 0.3 to 30 nM.
On to `CC(=O)NC1(C)CN(c2cc(-c3cc(F)cc(-c4ccc(-n5ccn(C)c5=O)c(Cl)c4)c3O)ccn2)C1` [Example 768, N-(1-(4-(3′-chloro-5-fluoro-2-hydroxy-4′-(3-methyl-2-oxo-2,3-dihydro-1H-imidazol-1-yl)-[1,1′-biphenyl]-3-yl)pyridin-2-yl)-3-methylazetidin-3-yl)acetamide], for which, in experiment [1] (setting [3]), the IC50 lay within 1 to 10 nM. For the same molecule, in experiment [2] (setting [4]), the GI50 was in the range of 30 to 300 nM.
For `Cc1cc(-c2ccc(-n3ccn(C)c3=O)c(Cl)c2)c(O)c(-c2ccc(F)c(N3CCN(C(C)(C)C)CC3)c2)n1` [Example 1000, 1-(4-(2-(3-(4-(tert-butyl)piperazin-1-yl)-4-fluorophenyl)-3-hydroxy-6-methylpyridin-4-yl)-2-chlorophenyl)-3-methyl-1H-imidazol-2(3H)-one], the IC50 in experiment [1] (setting [5]) fell in the range of 1 to 10 nM. In experiment [2] (setting [6]), this molecule showed a GI50 of 0.3 to 30 nM.
Turning to `Cn1ccn(-c2ccc(-c3cc(F)cc(-c4ccnc(N5CC[C@H](O)C5)c4)c3O)cc2Cl)c1=O` [Example 626, (S)-1-(3-chloro-5′-fluoro-2′-hydroxy-3′-(2-(3-hydroxypyrrolidin-1-yl)pyridin-4-yl)-[1,1′-biphenyl]-4-yl)-3-methyl-1H-imidazol-2(3H)-one], in experiment [1] (setting [3]), the IC50 lay in the range of 0.01 to 1 nM. The GI50 in experiment [2] (setting [4]) was 30 to 300 nM.
For `C[C@@H]1CN(c2cc(-c3cc(F)cc(-c4ccc(-n5ccn(C)c5=O)c(Cl)c4)c3O)cc3[nH]cnc23)CCN1` [Example 522, (R)-1-(3-chloro-5′-fluoro-2′-hydroxy-3′-(4-(3-methylpiperazin-1-yl)-1H-benzo[d]imidazol-6-yl)-[1,1′-biphenyl]-4-yl)-3-methyl-1H-imidazol-2(3H)-one], in that order: 1 to 10 nM and 0.3 to 30 nM.
Take `CC(=O)Nc1cnc(-c2cc(F)cc(-c3cccc(N4CCN(C(C)(C)C)CC4)c3)c2O)cn1` [Example 887]: in experiment [1] (setting [5]), the IC50 is above 100 nM. In experiment [2] (setting [6]), this molecule yielded a GI50 of 300 to 3000 nM.
For `CN1C2CCC1CN(c1cc(-c3cc(F)cc(-c4ccc(-n5ccn(C)c5=O)c(Cl)c4)c3O)ccn1)C2` [Example 513, 1-(3-chloro-5′-fluoro-2′-hydroxy-3′-(2-(8-methyl-3,8-diazabicyclo[3.2.1]octan-3-yl)pyridin-4-yl)-[1,1′-biphenyl]-4-yl)-3-methyl-1H-imidazol-2(3H)-one], in experiment [1] (setting [3]), the IC50 lay within 1 to 10 nM. Also, the GI50 in experiment [2] (setting [4]) was in the range of 0.3 to 30 nM.
For `CCc1ncc(-c2cc(F)cc(-c3ccc(-n4ccn(C)c4=O)c(Cl)c3)c2O)cc1N1CCN(C(C)(C)C)CC1` [Example 848, 1-(3′-(5-(4-(tert-butyl)piperazin-1-yl)-6-ethylpyridin-3-yl)-3-chloro-5′-fluoro-2′-hydroxy-[1,1′-biphenyl]-4-yl)-3-methyl-1H-imidazol-2(3H)-one], the IC50 in experiment [1] (setting [3]) lay within 10 to 100 nM. In addition, the GI50 in experiment [2] (setting [4]) was 0.3 to 30 nM.
As for `Cn1ccn(-c2ccc(-c3cc(F)cc(-c4ccnc(N5CCN[C@H](CO)C5)c4)c3O)cc2Cl)c1=O` [Example 556, (S)-1-(3-chloro-5′-fluoro-2′-hydroxy-3′-(2-(3-(hydroxymethyl)piperazin-1-yl)pyridin-4-yl)-[1,1′-biphenyl]-4-yl)-3-methyl-1H-imidazol-2(3H)-one], the IC50 in experiment [1] (setting [3]) was in the range of 1 to 10 nM. In experiment [2] (setting [4]), this molecule displayed a GI50 of 0.3 to 30 nM.
For `COc1cc(-c2cc(F)cc(-c3ccc(-n4ccn(C)c4=O)c(Cl)c3)c2O)cc(N2CCN(C(C)(C)C)CC2)n1` [Example 732, 1-(3′-(2-(4-(tert-butyl)piperazin-1-yl)-6-methoxypyridin-4-yl)-3-chloro-5′-fluoro-2′-hydroxy-[1,1′-biphenyl]-4-yl)-3-methyl-1H-imidazol-2(3H)-one], the 50% inhibitory concentration (IC50) in experiment [1] (setting [3]) lay within 1 to 10 nM. In experiment [2] (setting [4]), the GI50 was in the range of 0.3 to 30 nM.
Consider `COc1ncc(-c2cc(F)cc(-c3ccc(-n4ccn(C)c4=O)c(Cl)c3)c2O)cc1N1CC(C)(C)[C@](C)(O)C1` [Example 871], for which, in experiment [1] (setting [5]), the IC50 lay in the range of 1 to 10 nM. This molecule returned a GI50 in experiment [2] (setting [6]) of 30 to 300 nM.
For `CN1CCN(c2ccc(-c3cc(-c4ccccc4)cc(-c4ccnc(N5CCNCC5)c4)c3O)cc2Cl)C1=O` [Example 318, 1-(3-chloro-6′-hydroxy-5′-(2-(piperazin-1-yl)pyridin-4-yl)-[1,1′:3′,1″-terphenyl]-4-yl)-3-methylimidazolidin-2-one], the IC50 in experiment [1] (setting [3]) is above 100 nM. In experiment [2] (setting [4]), this molecule yielded a GI50 of 300 to 3000 nM.
The corresponding values for `C[C@@H]1CN(c2cc(-c3cc(F)cc(-c4ccc(N5CCN(C)C5=O)c(Cl)c4)c3O)ccn2)CCN1` [Example 359, (R)-1-(3-chloro-5′-fluoro-2′-hydroxy-3′-(2-(3-methylpiperazin-1-yl)pyridin-4-yl)-[1,1′-biphenyl]-4-yl)-3-methylimidazolidin-2-one] are 1 to 10 nM and 30 to 300 nM.
On to `CC[C@@H]1CN(c2cc(-c3cc(F)cc(-c4ccc(-n5ccn(C)c5=O)c(Cl)c4)c3O)cc3[nH]ncc23)CCN1` [Example 594, (R)-1-(3-chloro-3′-(4-(3-ethylpiperazin-1-yl)-1H-indazol-6-yl)-5′-fluoro-2′-hydroxy-[1,1′-biphenyl]-4-yl)-3-methyl-1H-imidazol-2(3H)-one], for which the 50% inhibitory concentration (IC50) in experiment [1] (setting [3]) lay within 0.01 to 1 nM. Moreover, the GI50 in experiment [2] (setting [4]) lay in the range of 0.3 to 30 nM.
For `CC(C)N1CCN(c2cc(-c3cc(F)cc(-c4ccc(-n5ccn(C)c5=O)c(Cl)c4)c3O)ccn2)CC1` [Example 530, 1-(3-chloro-5′-fluoro-2′-hydroxy-3′-(2-(4-isopropylpiperazin-1-yl)pyridin-4-yl)-[1,1′-biphenyl]-4-yl)-3-methyl-1H-imidazol-2(3H)-one], in that order: 0.01 to 1 nM and 0.3 to 30 nM.
For `CCc1cc(-c2cc(F)cc(-c3ccc(-n4ccn(C)c4=O)c(Cl)c3)c2O)cc(N2CCN(C(C)C)CC2)n1` [Example 704, 1-(3-chloro-3′-(2-ethyl-6-(4-isopropylpiperazin-1-yl)pyridin-4-yl)-5′-fluoro-2′-hydroxy-[1,1′-biphenyl]-4-yl)-3-methyl-1H-imidazol-2(3H)-one], in experiment [1] (setting [3]), the concentration for half-maximal inhibition (IC50) was 0.01 to 1 nM. The GI50 in experiment [2] (setting [4]) is 0.3 to 30 nM.
In the case of `Cn1ccn(-c2ccc(-c3cc(Cl)cc(-c4cccc(N5CCN(C(C)(C)C)CC5)c4)c3O)cc2Cl)c1=O` [Example 1024, 1-(3″-(4-(tert-butyl)piperazin-1-yl)-3,5′-dichloro-2′-hydroxy-[1,1′:3′,1″-terphenyl]-4-yl)-3-methyl-1H-imidazol-2(3H)-one], the IC50 in experiment [1] (setting [5]) fell in the range of 1 to 10 nM. Besides, the GI50 in experiment [2] (setting [6]) was in the range of 0.3 to 30 nM.
For `CN[C@H]1CCN(c2cc(-c3cc(F)cc(-c4ccc(-n5ccn(C)c5=O)c(Cl)c4)c3O)ccn2)C1` [Example 429], the IC50 in experiment [1] (setting [3]) lay within 0.01 to 1 nM. Also, in experiment [2] (setting [4]), the concentration for 50% growth inhibition (GI50) was in the range of 0.3 to 30 nM.

The record behind these values is US20250179059A1 (The Regents of the University of California, priority 2021, published 2025).
